Measured values published in patent US20110046210A1, “SUBSTITUTED THIOPENECARBOXAMIDES AS IKK-BETA SERINE-, THREONINE-PROTEIN KINASE INHIBITORS” (CHROMA THERAPEUTICS LTD., priority 2008, published 2011).
Read-outs that look alike come from different tables or passages of the source.

Tests used:
human whole blood = test: LPS-stimulation of human whole blood, TNF-α release; type: cell-based
Protocol: Whole blood was taken by venous puncture using heparinised vacutainers (Becton Dickinson) and diluted in an equal volume of RPMI1640 tissue culture media (Sigma). 100 μl was plated in V-bottomed 96 well tissue culture treated plates. 2 hours after the addition of the inhibitor in 100 μl of RPMI1640 media, the blood was stimulated with LPS (E coli strain 005:B5, Sigma) at a final concentration of 100 ng/ml and incubated at 37° C. in 5% CO2 for 6 hours. TNF-α levels were measured from cell-free supernatants by sandwich ELISA (R&D Systems #QTA00B). Human heparinised blood (17-IU/ml) was diluted with an equal volume of RPMI-1640 and then sub-aliquoted into 96 well microtitre wells (100 µl/well). Inhibitors of IKKβ that had been serially diluted in RPMI-1640 were added to the wells (100 µl/well) to give a range of final concentrations (5-10000 nM). After incubation for 2 hours at 37° C., TNF[…] production was stimulated for 6 hours at 37° C. by the addition of 10 µl of LPS (E Coli 055:B5) to give a final concentration of 100 ng/ml. Plates were then centrifuged for 3 minutes at 800 g and TNF[…] present in the supernatant then measured, using a QuantiGlo Chemiluminescent ELISA (R&D Systems). The human whole blood assay measures the ability of the compounds to inhibit the LPS stimulated production of TNF alpha in human blood cells mediated by IKKβ in a physiologically relevant setting.

IKBKB (IKK-β) = biological target: T1, IKBKB (IKK-β) (Homo sapiens, UniProt O14920); test: IKKβ enzyme assay (Z'-LYTE, Invitrogen); type: biochemical
T1 construct: purchased Invitrogen (Paisley, UK)
T1 sequence (O14920 1-756): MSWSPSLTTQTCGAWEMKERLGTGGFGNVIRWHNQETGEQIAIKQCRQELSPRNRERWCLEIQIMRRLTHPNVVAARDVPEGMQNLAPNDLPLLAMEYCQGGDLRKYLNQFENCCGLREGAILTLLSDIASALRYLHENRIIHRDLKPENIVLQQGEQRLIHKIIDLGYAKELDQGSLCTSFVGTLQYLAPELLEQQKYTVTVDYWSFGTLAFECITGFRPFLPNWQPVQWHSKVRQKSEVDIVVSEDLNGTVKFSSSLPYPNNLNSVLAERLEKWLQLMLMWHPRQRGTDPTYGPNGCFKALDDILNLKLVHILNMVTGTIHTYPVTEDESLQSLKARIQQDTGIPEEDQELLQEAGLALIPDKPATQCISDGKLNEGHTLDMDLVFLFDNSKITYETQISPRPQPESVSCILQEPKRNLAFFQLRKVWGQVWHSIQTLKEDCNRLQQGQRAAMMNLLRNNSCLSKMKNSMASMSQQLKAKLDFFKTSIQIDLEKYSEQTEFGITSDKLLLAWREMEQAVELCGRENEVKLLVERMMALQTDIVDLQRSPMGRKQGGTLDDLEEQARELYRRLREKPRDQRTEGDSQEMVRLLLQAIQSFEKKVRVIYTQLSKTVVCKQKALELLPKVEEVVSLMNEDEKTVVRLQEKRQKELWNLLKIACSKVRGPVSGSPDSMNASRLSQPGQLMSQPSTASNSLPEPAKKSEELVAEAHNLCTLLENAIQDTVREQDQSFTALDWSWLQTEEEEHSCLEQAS
Protocol: The ability of compounds to inhibit IKK-β kinase activity was measured in an assay performed by Invitrogen (Paisley, UK). The Z′-LYTE™ biochemical assay employs a fluorescence-based, coupled-enzyme format and is based on the differential sensitivity of phosphorylated and non-phosphorylated peptides to proteolytic cleavage. The peptide substrate is labelled with two fluorophores—one at each end—that make up a FRET pair. In the primary reaction, the kinase transfers the gamma-phosphate of ATP to a single serine or threonine residue in a synthetic FRET-peptide. In the secondary reaction, a site-specific protease recognizes and cleaves non-phosphorylated FRET-peptides. Phosphorylation of FRET-peptides suppresses cleavage by the Development Reagent. Cleavage disrupts FRET between the donor (i.e. coumarin) and acceptor (i.e. fluorescein) fluorophores on the FRET-peptide, whereas uncleaved, phosphorylated FRET-peptides maintain FRET. A […] method, which calculates the ratio (the Emission Ratio) of donor emission to acceptor emission after excitation of the donor fluorophore at 400 nm, is used to quantitate reaction progress.
The final 10 μL Kinase Reaction consists of 0.9-8.0 ng IKBKB (IKK-β), 2 μM Ser/Thr 05 Peptide and ATP in 50 mM HEPES pH 7.5, 0.01% BRIJ-35, 10 mM MgCl2, 1 mM EGTA. The assay is performed at an ATP concentration at, or close to the Km. After the 60 minute Kinase Reaction incubation at room temperature, 5 μL of a 1:128 dilution of Development Reagent is added. The assay plate is incubated for a further 60 minutes at room temperature and read on a fluorescence plate reader.
Duplicate data points are generated from a ⅓ log dilution series of a stock solution of test compound in DMSO. Nine dilutions steps are made from a top concentration of 10 μM, and a ‘no compound’ blank is included. Data is collected and analysed using XLfit software from IDBS. The dose response curve is curve fitted to model number 205 (sigmoidal dose-response model). From the curve generated, the concentration giving 50% inhibition is determined and reported.

THP-1 cells = test: LPS-stimulation of THP-1 cells, TNF-α release; type: cell-based; conditions: Homo sapiens, LPS 1 μg/ml, 6 hours, IC50 range, read-out: Inhibitor activity versus THP-1 TNFα release
Protocol: THP-1 cells were plated in 100 μl at a density of 4×10^4 cells/well in V-bottomed 96 well tissue culture treated plates and incubated at 37° C. in 5% CO2 for 16 hours. 2 hours after the addition of the inhibitor in 100 μl of tissue culture media, the cells were stimulated with LPS (E coli strain 005:B5, Sigma) at a final concentration of 1 μg/ml and incubated at 37° C. in 5% CO2 for 6 hours. TNF-α levels were measured from cell-free supernatants by sandwich ELISA (R&D Systems #QTA00B).

[1] = LPS stimulated TNF alpha production, read-out: IC50 in Human whole blood
[2] = read-out: Enzyme IC50 (nM) vs IKKβ
[3] = LPS 100 ng/ml, 6 hours, IC50 range, read-out: Inhibitor activity versus human whole blood TNFα release
[4] = ATP at or close to Km, IC50 range, read-out: Inhibitor activity versus IKKβ

IC50 (human whole blood; [1]) [nM]	IC50 (IKBKB (IKK-β); [2]) [nM]	IC50 (human whole blood; [3]) [nM]	IC50 (THP-1 cells) [nM]	IC50 (IKBKB (IKK-β); [4]) [nM]	Structure (SMILES)
489	5				NC(=O)Nc1sc(-c2ccccc2)cc1C(N)=O [Compound I, reference compound]
140	132	< 500	< 500	< 500	CC(C)(NCc1cccc(-c2cc(C(N)=O)c(NC(N)=O)s2)c1)C(=O)OC1CCCC1 [Example 1, Cyclopentyl N-{3-[4-carbamoyl-5-(carbamoylamino)-2-thienyl]benzyl}-2-methylalaninate]
		> 1000	< 500	< 500	CC(C)(C)OC(=O)C(C)(C)NCc1cccc(-c2cc(C(N)=O)c(NC(N)=O)s2)c1 [Example 2, tert-Butyl N-{3-[4-carbamoyl-5-(carbamoylamino)-2-thienyl]benzyl}-2-methylalaninate]
		> 1000	> 1000	< 500	CC(C)(NC(=O)c1cccc(-c2cc(C(N)=O)c(NC(N)=O)s2)c1)C(=O)OC1CCCC1 [Example 3, Cyclopentyl N-{3-[4-carbamoyl-5-(carbamoylamino)-2-thienyl]benzoyl}-2-methylalaninate]
		< 500	500 to 1000	500 to 1000	CC(C)(NCCc1cccc(-c2cc(C(N)=O)c(NC(N)=O)s2)c1)C(=O)OC1CCCC1 [Example 6, Cyclopentyl N-(2-{3-[4-carbamoyl-5-(carbamoylamino)-2-thienyl]phenyl}ethyl)-2-methylalaninate]
				< 500	CC(C)(NC(=O)c1cccc(-c2cc(C(N)=O)c(NC(N)=O)s2)c1)C(=O)O [Example 9, N-{3-[4-Carbamoyl-5-(carbamoylamino)-2-thienyl]benzoyl}-2-methylalanine]
				< 500	CC(C)(NCCc1cccc(-c2cc(C(N)=O)c(NC(N)=O)s2)c1)C(=O)O [Example 10, N-(2-{3-[4-carbamoyl-5-(carbamoylamino)-2-thienyl]phenyl}ethyl)-2-methylalanine]

Further lines, the molecule ahead of its results:

Structure (SMILES)	IC50 (human whole blood; [1]) [nM]	IC50 (IKBKB (IKK-β); [2]) [nM]	IC50 (human whole blood; [3]) [nM]	IC50 (THP-1 cells) [nM]	IC50 (IKBKB (IKK-β); [4]) [nM]
CCC(CC)(NCc1cccc(-c2cc(C(N)=O)c(NC(N)=O)s2)c1)C(=O)OC1CCCC1 [Example 4, Cyclopentyl 2-({3-[4-carbamoyl-5-(carbamoylamino)-2-thienyl]benzyl}amino)-2-ethylbutanoate]			> 1000	< 500	> 1000
CC(C)(NCc1ccc(-c2cc(C(N)=O)c(NC(N)=O)s2)cc1)C(=O)OC1CCCC1 [Example 5, Cyclopentyl N-{4-[4-carbamoyl-5-(carbamoylamino)-2-thienyl]benzyl}-2-methylalaninate]			500 to 1000	> 1000	< 500
CC(C)(NCc1ccc2cc(-c3cc(C(N)=O)c(NC(N)=O)s3)ccc2c1)C(=O)OC1CCCC1 [Example 7, Cyclopentyl N-({6-[4-carbamoyl-5-(carbamoylamino)-2-thienyl]-2-naphthyl}methyl)-2-methylalaninate]			> 1000	< 500	> 1000
CC(C)(NCc1cccc(-c2cc(C(N)=O)c(NC(N)=O)s2)c1)C(=O)O [Example 8, N-{3-[4-Carbamoyl-5-(carbamoylamino)-2-thienyl]benzyl}-2-methylalanine]					< 500
CC(C)(NCc1ccc2cc(-c3cc(C(N)=O)c(NC(N)=O)s3)ccc2c1)C(=O)O [Example 11, N-({6-[4-carbamoyl-5-(carbamoylamino)-2-thienyl]-2-naphthyl}methyl)-2-methylalanine]					< 500
